The source of these data is patent publication US10690661B2, “Yeast-based biosensor” (priority 2014, dated 2020).

Entries after “also recorded” stand apart in the source; their conditions may differ.

In experiment [1] the test system is mutant Ste2 receptors isolated for Variant 56. The experiment is described as follows: GFP/RFP reporter dose response, mutants isolated for sensitivity to ligand Variant 56.
For experiment [2], the system named is evolved receptors (from Ste2p). Briefly: Sensitivity enhancement dose response of evolved receptors. Particulars: FIG. 11. It is filed as cell-based, Saccharomyces cerevisiae.
The target of experiment [3] is Mutant 56.5 (mutant Ste2 receptor). The experiment is described as follows: GFP/RFP reporter dose response, isolated mutant receptor Mutant 56.5. Conditions: alpha factor on Mutant 56.5, compared with native Ste2; FIG. 4B.
A further experiment concerns Mutant receptor RecGssB. Briefly: Dose response of mutant receptors evolved for GSS chimera GssB. The format is cell-based, Saccharomyces cerevisiae. From the text: (§1) Receptor activation was coupled to green fluorescent protein (GFP) expression by cloning GFP downstream of the Ste2p-activated FUS1 promoter. Therefore a receptor mutant that is successfully activated by the POI will result in the cell fluorescing green. The discriminating power of the screen is improved by including an internal control, constitutive expression of mKate (a red fluorescent protein). Red fluorescence corresponds to cell size, and allows us to normalize the GFP measurement for more accurate sorting. […] The initial HTS has false positive (FP) rates of 20% and false negative (FN) rates of 10%. The FP and FN rate is overcome by doing multiple rounds of enrichment. In four rounds of enrichment, a population of cells is isolated that originally was 1 in 10^6.
(§2) Initial attempts to evolve directly for the cystatin/GSS peptides were unsuccessful. To take smaller evolutionary steps, chimera peptides were designed that were more similar to α-factor. Receptors were evolved to recognize peptide that contain several changes in the peptide sequence (FIG. 9a-c).

The target in experiment [4] is Mutant 44.1 (mutant Ste2 receptor). The experiment is described as follows: GFP/RFP reporter dose response, isolated mutant receptor Mutant 44.1. Particulars: alpha factor on Mutant 44.1, compared with native Ste2; FIG. 3B.
Experiment [5] has as its target T1, native Ste2 receptor (Saccharomyces cerevisiae, UniProt D6VTK4, A176T/D201G/D370N/S34T).
T1 construct: contains yeast Sterile2 (Ste2) receptor between the constitutive GPD promoter and the CYC1 terminator; expressed in transfected cells; host or cells: S. cerevisiae MPY578t5 derivatives (native STE2 removed), plasmid pJB036
Particulars: physiological concentrations; previous literature; cited from earlier work.

In experiment [6] the test system is re-mutagenized mutant Ste2 receptor library. Briefly: Screen of library made by re-mutagenizing a Variant 56-sensitive mutant receptor. The format is cell-based, Saccharomyces cerevisiae. Particulars: FIG. 7a. An excerpt: Specificity can be increased with iterative selection and counter-selection (FIG. 7b). […] Round 2 library mutants were also screened for lack of activity for α-factor, confirming the evolution of receptors for specificity against α-factor (FIG. 7c).

Experiment [7] has as its target T1, native Ste2 receptor. The experiment is described as follows: GFP/RFP reporter dose response in yeast expressing the native Ste2 receptor. The format is cell-based. Particulars: compared to the native ligand.
For experiment [8], the target named is Mutant receptors (RecCys1). Briefly: Dose response of mutant receptors evolved for cystatin chimera Cys1. The format is cell-based, Saccharomyces cerevisiae. Particulars: FIG. 9a.
Source text: as §1, §2

Experiment [9] concerns evolved cystatin receptor. The format is cell-based, Saccharomyces cerevisiae.
In experiment [10] the target is Mutant receptors derived from RecCys1 mutagenesis. The experiment is described as follows: Dose response of mutant receptors evolved for cystatin chimera Cys2. It is filed as cell-based, Saccharomyces cerevisiae. Particulars: FIG. 9b.
Source text: as §1, §2
Receptors have been successfully evolved for some chimeras. Two steps have been completed for cystatin (evolving for Cys1 and then using that receptor as a parent to evolve for Cys2) and one step for GSS.

T1 sequence (D6VTK4 whole entry S34T/A176T/D201G/D370N): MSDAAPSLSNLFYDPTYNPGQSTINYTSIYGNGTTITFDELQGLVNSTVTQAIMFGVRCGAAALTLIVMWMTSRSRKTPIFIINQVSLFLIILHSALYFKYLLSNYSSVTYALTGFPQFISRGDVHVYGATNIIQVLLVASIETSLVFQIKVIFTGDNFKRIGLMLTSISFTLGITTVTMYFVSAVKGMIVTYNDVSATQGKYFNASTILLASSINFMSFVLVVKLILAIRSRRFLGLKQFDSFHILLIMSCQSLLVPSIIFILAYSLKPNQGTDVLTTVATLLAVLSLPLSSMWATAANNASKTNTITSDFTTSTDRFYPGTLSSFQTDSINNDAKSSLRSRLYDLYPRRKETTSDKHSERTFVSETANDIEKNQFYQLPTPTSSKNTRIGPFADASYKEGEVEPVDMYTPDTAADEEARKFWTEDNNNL

Regarding WHWLQLKPGQPMY [α-factor], the “activity of isolated mutants for the native pheromone” value in experiment [1] (FIG. 4B) is “maintained some activity”. Moreover, the “concentration at which evolved receptors respond, relative to wild type/Ste2p receptor” value in experiment [2] is given as “concentrations lower than the wild type”. Further, the “EC50 relative to Ste2” value in [3] and in [4] was “significantly higher” throughout. Moreover, the “response of evolved receptor to the native ligand” value in the experiment with Mutant receptor RecGssB (FIG. 9d) is “do not respond; also recorded: no longer responds”.
On to WAWLQLKPGQPMY, for which the “response of Ste2 to the ligand” value at native Ste2 receptor [5] is given as “very low response, if any”.
Consider LRLLALKPGQPLYGR [Gss1], for which the “effect of GssB-enhancing receptor mutations on response” value in the experiment with Mutant receptor RecGssB (receptors carrying mutations that enhance the response to GssB) is “enhance response”.
WHWLQLKPGEPLYGR [GssB]: the “EC50 relative to RecSte2p” value on Mutant receptor RecGssB (FIG. 9c) is recorded as “lower”.
For WHYLQLKPGQPMY [Variant 56], the “EC50 relative to Ste2” value in experiment [1] (all five isolated mutants, FIG. 4A, FIG. 5) is recorded as “significantly lower”. Further, in experiment [6], the “activity of new library after second round of mutagenesis” value is listed as “increased activity”. Also, the “activity of the native Ste2 receptor for the ligand” value at native Ste2 receptor [7] was “little activity”. Moreover, the “response of Ste2 to the ligand” value on native Ste2 receptor [5] is recorded as “very low response, if any”.
For the sequence HALALKPGEPMY [Cys1], in experiment [8], the “EC50 relative to RecSte2p” value is on record as “lower”.
Take “ALDFAVGEYNK (listed as Cystatin chimera) [Cys5]”: the “response of evolved cystatin receptor” value in [9] (FIG. 13B) is on record as “rises in response”. For the same sequence, in experiment [9] (FIG. 14A-C), the “response of receptor mutants evolved from Ste2p (dose response curve)” value is recorded as “respond”.
Take ALALKPGEPMY [Cys2]: in experiment [10], the “EC50 relative to RecSte2p” value is given as “lower”.
